The target of the test is T1, human mAChR M4 (Homo sapiens, UniProt P08173).
T1 construct: expressed in transfected cells
T1 sequence (P08173 1-479): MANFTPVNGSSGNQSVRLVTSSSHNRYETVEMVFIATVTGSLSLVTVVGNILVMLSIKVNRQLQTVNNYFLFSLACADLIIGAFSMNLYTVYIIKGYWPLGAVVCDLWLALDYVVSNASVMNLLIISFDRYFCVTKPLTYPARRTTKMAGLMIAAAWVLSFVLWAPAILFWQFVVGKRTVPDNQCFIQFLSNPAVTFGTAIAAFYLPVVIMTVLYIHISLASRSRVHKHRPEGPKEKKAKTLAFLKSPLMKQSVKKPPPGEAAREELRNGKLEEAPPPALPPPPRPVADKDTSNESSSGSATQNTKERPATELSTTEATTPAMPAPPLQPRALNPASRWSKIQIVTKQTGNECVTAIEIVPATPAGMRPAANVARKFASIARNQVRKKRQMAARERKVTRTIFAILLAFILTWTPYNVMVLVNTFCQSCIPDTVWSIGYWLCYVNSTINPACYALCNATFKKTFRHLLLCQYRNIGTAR
Nature of the test: mAChR M4 cell-based functional assay (calcium mobilization, CHO-K1 hM4-Gqi5 cells). The following applies: for Emax at 30 µM: CHO-K1, % ACh maximum at 30 μM, human M4; for EC50: positive allosteric modulator activity, increase in the EC20 acetylcholine response, CHO-K1 hM4-Gqi5 cells, read-out: Human M4 EC50. The procedure, abridged:
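Fluorescent calcium read-out (Fluo-4 AM, FDSS, 1 Hz) in hM4-Gqi5 CHO-K1 cells, 11-point 1:3 compound series. Agonism scored on compound addition, PAM activity as increase of the 144 s EC20 acetylcholine response, antagonism as decrease of the 230 s EC80 response; four-parameter logistic fits give EC50 and Emax.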

Data on eight molecules can be found in patent publication US20250230155A1 (Vanderbilt University, priority 2021, published 2025).

Take `Cc1cnccc1CNC(=O)c1cnc(N2CCc3ncccc3C2)c(C)c1` [compound 130, 6-(7,8-dihydro-5H-1,6-naphthyridin-6-yl)-5-methyl-N-[(3-methyl-4-pyridyl)methyl]pyridine-3-carboxamide]: the Emax at 30 µM came to 82% and the concentration giving a half-maximal response (EC50) is 0.507 µM.
The corresponding values for `COC(=O)c1ccc(CNC(=O)c2cnc(N3CCc4ncccc4C3)c(C)c2)cn1` [compound 142, methyl 5-[[[6-(7,8-dihydro-5H-1,6-naphthyridin-6-yl)-5-methyl-pyridine-3-carbonyl]amino]methyl]pyridine-2-carboxylate] are 50% and not below 10 µM.
For `Cc1c(C#N)nnc(N2CCc3ncc(-c4ccc(N5CC(C(C)(C)O)C5)nc4)cc3C2)c1C` [Example 329, 6-(3-(6-(3-(2-hydroxypropan-2-yl)azetidin-1-yl)pyridin-3-yl)-7,8-dihydro-1,6-naphthyridin-6(5H)-yl)-4,5-dimethylpyridazine-3-carbonitrile], in that order: 66% and 0.554 µM.
For `Cc1ccc(Oc2cnc3c(c2)CN(c2ncc(C#N)cc2C)CC3)c(F)c1` [Example 349, 6-(3-(2-fluoro-4-methylphenoxy)-7,8-dihydro-1,6-naphthyridin-6(5H)-yl)-5-methylnicotinonitrile], in that order: 72% and 1.12 µM.
With `Cc1c(C#N)nnc(N2CCc3ncc(-c4ccc5ncn(C)c5c4)cc3C2)c1C` [Example 17], the maximal response (Emax) at 30 µM was 33% and the EC50 worked out at 0.56 µM.
For `Cc1cc(C(=O)N2Cc3cccnc3C2)nnc1N1CCc2ncc(N3CCCn4nccc43)cc2C1` [Example 513, (5,7-dihydro-6H-pyrrolo[3,4-b]pyridin-6-yl)(6-(3-(6,7-dihydropyrazolo[1,5-a]pyrimidin-4(5H)-yl)-7,8-dihydro-1,6-naphthyridin-6(5H)-yl)-5-methylpyridazin-3-yl)methanone], in that order: 90% and 0.051 µM.
For the molecule `Cc1c(C#N)nnc(N2CCc3ncc(-c4ccc(C5CC5)nc4)cc3C2)c1C` [Example 301, 6-(3-(6-cyclopropylpyridin-3-yl)-7,8-dihydro-1,6-naphthyridin-6(5H)-yl)-4,5-dimethylpyridazine-3-carbonitrile], the Emax at 30 µM was 57% and the EC50 worked out at 0.265 µM.
For `Cc1nc(Cl)c(C)c(N2CCc3ncc(Oc4cccc(F)c4)cc3C2)n1` [compound 203, 6-(6-chloro-2,5-dimethyl-pyrimidin-4-yl)-3-(3-fluorophenoxy)-7,8-dihydro-5H-1,6-naphthyridine], in that order: 86% and 0.647 µM.
